Experimental data published in publication PMC6761534 (Antimicrobial Agents and Chemotherapy, 2019).

How the values were obtained:
Assay type in all cases: cell-based, Mycobacterium tuberculosis
M. tuberculosis H37Rv = system: M. tuberculosis H37Rv
[1] = system: M. tuberculosis c subunit mutant strain D28A
[2] = system: M. tuberculosis c subunit mutant strain D28G
[3] = system: M. tuberculosis c subunit mutant strain D28V
[4] = system: M. tuberculosis c subunit mutant strain E61D
[5] = system: M. tuberculosis c subunit mutant strain A63P
[6] = system: M. tuberculosis c subunit mutant strain I66M

Compound	Mutation frequency (M. tuberculosis H37Rv)	No. of atpE mutants/total no. of mutants isolated (M. tuberculosis H37Rv)	MIC90 fold increase in M. tuberculosis c subunit mutant strain D28A [1] [fold]	MIC90 fold increase in M. tuberculosis c subunit mutant strain D28G [2] [fold]	MIC90 fold increase in M. tuberculosis c subunit mutant strain D28V [3] [fold]	MIC90 fold increase in M. tuberculosis c subunit mutant strain E61D [4] [fold]	MIC90 fold increase in M. tuberculosis c subunit mutant strain A63P [5] [fold]	MIC90 fold increase in M. tuberculosis c subunit mutant strain I66M [6] [fold]
COc1cc([C@](O)(CCN(C)C)[C@H](c2cc(OC(C)C)cnc2OC)c2cc3cc(Br)ccc3nc2OC)cc(OC)n1 [compound 5366]	2.54 × 10^−8	28/28	333	300	250	45	50	50
COc1cc([C@](O)(CCN(C)C)[C@@H](c2cc3cc(Br)ccc3nc2OC)c2ccnc(OC)c2OC)cc(OC)n1 [compound 5307]	3.00 × 10^−8	33/34	357	235	360	100	150	87
COc1cc([C@](O)(CCN(C)C)[C@@H](c2cc3cc(Br)ccc3nc2OC)c2cc(OC)nc(OC)c2OC)cc(OC)n1 [TBAJ-876]	4.23 × 10^−9	5/5	140	104	132	100	48	59
COc1nc2ccc(Br)cc2cc1[C@@H](c1ccccc1)[C@@](O)(CCN(C)C)c1cccc2ccccc12 [BDQ, Bedaquiline, reference compound]	–	–	>400	>400	>400	312	>400	262
COc1cc([C@](O)(CCN(C)C)[C@@H](c2cc3cc(Br)ccc3nc2OC)c2cccc3c2OCCO3)cc(OC)n1 [compound 5316]	6.36 × 10^−9	7/7	200	200	200	105	72	42
